Measurements reported in paper PMC10004634 (PLOS ONE, 2023).

Assays:
[1] = system: BT system (B cells, peripheral blood mononuclear cells); assay: BioMAP Diversity PLUS profiling, BT system; type: cell-based, human; conditions: 120, 370, 1100, 3300 nM
Experimental: In brief, cultures with one or more primary cell types from healthy human donors were treated with sets of stimulators specific to the cell subsets, and the optimized biomarker readouts for each system were measured by ELISA and other techniques, as listed in S1 Table. The assays included positive and negative controls as well as vehicle control. Results are presented as the log-transformed ratio of biomarker readouts for tirabrutinib-treated samples to vehicle controls.

[2] = biological target: T1, TEC (Homo sapiens, UniProt P42680); assay: LanthaScreen Eu kinase binding assay; design: purchased Thermo Fisher Scientific (Invitrogen LanthaScreen service); conditions: 60 min preincubation
T1 sequence (P42680 1-631): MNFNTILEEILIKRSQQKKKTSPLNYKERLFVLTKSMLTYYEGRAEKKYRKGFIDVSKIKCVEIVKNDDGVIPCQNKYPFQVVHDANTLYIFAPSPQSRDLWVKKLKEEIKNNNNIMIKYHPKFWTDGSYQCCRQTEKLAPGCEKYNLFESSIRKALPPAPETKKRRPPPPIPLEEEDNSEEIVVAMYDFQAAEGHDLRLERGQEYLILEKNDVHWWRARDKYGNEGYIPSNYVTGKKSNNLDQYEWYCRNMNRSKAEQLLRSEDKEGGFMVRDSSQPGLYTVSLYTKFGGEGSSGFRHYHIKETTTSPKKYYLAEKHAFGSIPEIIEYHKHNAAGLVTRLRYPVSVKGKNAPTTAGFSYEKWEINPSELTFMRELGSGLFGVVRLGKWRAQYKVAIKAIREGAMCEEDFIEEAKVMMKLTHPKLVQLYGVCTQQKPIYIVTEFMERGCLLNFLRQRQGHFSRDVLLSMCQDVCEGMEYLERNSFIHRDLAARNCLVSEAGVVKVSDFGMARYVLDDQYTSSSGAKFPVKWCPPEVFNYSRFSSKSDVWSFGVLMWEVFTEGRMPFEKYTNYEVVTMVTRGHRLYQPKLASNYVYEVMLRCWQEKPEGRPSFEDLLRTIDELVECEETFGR
Experimental: In all the assays, each test compound was preincubated with peptide/kinase mixture or kinase/antibody mixture for 60 min at room temperature before adding the ATP solution or AlexaFluor labeled Tracer to initiate the 60-min incubation of the reactants.

SMILES | effect on the BT system (B-cell growth, production of IgG, IL-6, IL-17A, TNFα) [1] | IC50 [2] [nM]
CC#CC(=O)N1CC[C@@H](n2c(=O)n(-c3ccc(Oc4ccccc4)cc3)c3c(N)ncnc32)C1 [Tirabrutinib] | concentration-dependent inhibitory effect | –
C=CC(=O)N1CCC([C@@H]2CCNc3c(C(N)=O)c(-c4ccc(Oc5ccccc5)cc4)nn32)CC1 [Zanubrutinib] | – | 4.47
